Earlier results in patent US9867849B2, “Methods of treating or ameliorating skin conditions with a magnetic dipole stabilized solution” (REVEN PHARMACEUTICALS, INC., priority 2010, dated 2018).

Experiments:
[1] = 241 osteoporotic women, 45 mg/day vitamin K2 and 150 mg elemental calcium, after two years
[2] = rats; 100 mg/kg body weight daily
[3] = rabbits
[4] = more than 500 postmenopausal women; dietary intake
[5] = test system: blast cell numbers in bone marrow and/or peripheral blood; conditions: of those receiving other medication concomitantly; 20-135 mg/day orally or 10-50 mg/day intravenously
[6] = 121 patients with hepatocellular carcinoma undergoing conventional therapy; 45 mg/day oral
[7] = higher intake of vitamin K2

CC(C)=CCC/C(C)=C/CC/C(C)=C/CC/C(C)=C/CC1=C(C)C(=O)c2ccccc2C1=O [Vitamin K2]
lumbar bone mineral density [1]: maintain lumbar bone mineral density
fracture incidence ([1]; 30% in the control group): 10%
increase in calcium in both kidneys and aorta induced by megadose of synthetic vitamin D [2]: inhibited
atherosclerotic plaque progression in the aorta and pulmonary arteries ([3]; 1-10 mg/kg daily for 10 weeks): inhibited
ester cholesterol deposition in the aorta ([3]; compared to the control group): reduce
factor X activity in plasma ([3]; compared to the control group): reduce
lipid peroxidation ([3]; compared to the control group): reduce
total cholesterol levels ([3]; compared to the control group): reduce
coronary calcification (association with intake) [4]: associated with the trend toward decreasing coronary calcification
patients in whom blast cell numbers in bone marrow and/or peripheral blood were reduced [5]: ~71%
survival [6]: significant increase in survival
reduction of prostate cancer risk [7]: 35%
